Measured values: publication PMC12514245, “Impaired migration and lung invasion of human melanoma by a novel small molecule targeting the transmembrane domain of death receptor p75^NTR” (EMBO Molecular Medicine, 2025)
Where “and” joins values, the source holds several entries; their conditions need not be identical. Identical values can stand only once.

Columns and labels:
A875 NT cells [1] = experiment: Boyden chamber chemotaxis/invasion assay, A875 NT; assay type: cell-based, human; settings: for Fold change - invading cells, Mean / Fold change - invading cells, individual replicates: 1μM; for Fold change (invading cells), Mean: N=3
Description: For Boyden chamber assay, Corning® BioCoat™ Matrigel® Invasion Chambers 8.0 µm PET Membrane were used (cat. no. 354480). A875 NT or WM115 cells were serum-starved for 16 h and then seeded at 60,000 cells per well in serum-free media under different conditions, including DMSO (vehicle) or small molecules Div17E5 or Np75-4A22 at different concentrations to the top chamber of the Matrigel-coated trans-well chamber. The pan-caspase inhibitor Q_VD_poH (at 5 µM) was also introduced in the top chamber in some experiments. Two different chemoattractants, NGF (at 50 ng/ml or 100 ng/ml as indicated) or 10% FBS were added to the bottom chamber. Assays were carried out for 8 h after which filters were fixed in 4% PFA and stained with DAPI. Cells that had remained on the top of the filter were gently scrapped away with a cotton tip. The filter lower side was imaged on an inverted fluorescence microscope and counted using ImageJ software (NIH).

A875 NT cells [2] = experiment: Wound healing cell motility assay, A875 NT; assay type: cell-based, human; settings: for Wound area, Mean: N=3; for Wound area (Fold), Mean / Wound area (Fold), individual replicates: 10uM
Description: For wound healing assay, cells were grown until confluency and subjected to a wound across the cell mono-layer. Cells were then incubated with serum-free media either with DMSO or a small molecule (with or without 5 µM Q_VD_poH) and imaged at specific time-points. Cell migration is reflected as fold change in wound area over time.

[3] = 5μM Q_VD_pOH + 10uM Div17E5, With NGF
[4] = 5μM Q_VD_pOH + 10uM Div17E5, without NGF
[5] = 5μM Q_VD_poH + 10μM Div17E5, 0 hours
[6] = 5μM Q_VD_poH + 10μM Div17E5, 3 hours
[7] = 5μM Q_VD_poH + 10μM Div17E5, 6 hours
[8] = 5μM Q_VD_poH + 10μM Div17E5, 9 hours
[9] = 5μM Q_VD_poH + 10μM Div17E5, 12 hours
[10] = 5μM Q_VD_poH + 10μM Div17E5, 15 hours
[11] = 5μM Q_VD_poH + 10μM Div17E5, 18 hours
[12] = 5μM Q_VD_poH + 10μM Div17E5, 21 hours
[13] = 5μM Q_VD_poH + 10μM Div17E5, 24 hours

Oc1ccc(-c2cncc(Nc3ccc(Br)c(Cl)c3)n2)cc1 [Div17E5]
NGF-induced chemotaxis (A875 NT cells [1]): strongly inhibited | background cell migration in the absence of NGF (A875 NT cells [1]): did not significantly affect background cell migration | Fold change - invading cells, Mean (A875 NT cells [1]; NGF): 1.91 | Fold change - invading cells, individual replicates (A875 NT cells [1]; NGF): 1.80 and 1.91 and 2.02 | Fold change - invading cells, Mean (A875 NT cells [1]; no NGF): 0.91 | Fold change - invading cells, individual replicates (A875 NT cells [1]; no NGF): 0.87 and 0.90 and 0.95 | NGF activity in Boyden chamber assay of cell chemotaxis (A875 NT cells [1]; 1 μM, NGF 50 ng/ml): inactive | Fold change (invading cells), n1-n3 (A875 NT cells [1]; [3]): 0.46 Fold and 0.84 Fold and 0.68 Fold | Fold change (invading cells), Mean (A875 NT cells [1]; [3]): 0.66 Fold | Fold change (invading cells), n1-n3 (A875 NT cells [1]; [4]): 0.94 Fold and 0.80 Fold | Fold change (invading cells), Mean (A875 NT cells [1]; [4]): 0.89 Fold | Fold change (invading cells), n1-n3 (A875 NT cells [1]; 10μM Div17E5, With NGF): 0.42 Fold and 0.37 Fold and 0.47 Fold | Fold change (invading cells), Mean (A875 NT cells [1]; 10μM Div17E5, With NGF): 0.42 Fold | Fold change (invading cells), n1-n3 (A875 NT cells [1]; 10μM Div17E5, without NGF): 0.87 Fold and 0.75 Fold and 0.76 Fold | Fold change (invading cells), Mean (A875 NT cells [1]; 10μM Div17E5, without NGF): 0.79 Fold | cell motility (wound healing) (A875 NT cells [2]): significantly impaired motility | Wound area, n1-n3 (A875 NT cells [2]; [5]): 1.151 Fold and 0.989 Fold and 0.859 Fold | Wound area, Mean (A875 NT cells [2]; [5]): 1.000 Fold | Wound area, n1-n3 (A875 NT cells [2]; [6]): 0.948 Fold and 1.003 Fold and 1.022 Fold | Wound area, Mean (A875 NT cells [2]; [6]): 0.991 Fold | Wound area, n1-n3 (A875 NT cells [2]; [7]): 0.944 Fold and 0.988 Fold and 1.047 Fold | Wound area, Mean (A875 NT cells [2]; [7]): 0.993 Fold | Wound area, n1-n3 (A875 NT cells [2]; [8]): 0.936 Fold and 0.934 Fold and 1.001 Fold | Wound area, Mean (A875 NT cells [2]; [8]): 0.957 Fold | Wound area, n1-n3 (A875 NT cells [2]; [9]): 0.937 Fold and 0.894 Fold and 1.002 Fold | Wound area, Mean (A875 NT cells [2]; [9]): 0.944 Fold | Wound area, n1-n3 (A875 NT cells [2]; [10]): 0.938 Fold and 0.874 Fold and 0.985 Fold | Wound area, Mean (A875 NT cells [2]; [10]): 0.932 Fold | Wound area, n1-n3 (A875 NT cells [2]; [11]): 0.920 Fold and 0.852 Fold and 0.976 Fold | Wound area, Mean (A875 NT cells [2]; [11]): 0.916 Fold | Wound area, n1-n3 (A875 NT cells [2]; [12]): 0.922 Fold and 0.829 Fold and 0.962 Fold | Wound area, Mean (A875 NT cells [2]; [12]): 0.904 Fold | Wound area, n1-n3 (A875 NT cells [2]; [13]): 0.916 Fold and 0.831 Fold and 0.939 Fold | Wound area, Mean (A875 NT cells [2]; [13]): 0.895 Fold | wound healing assay, comparison of Div17E5, MS_18 and MS_63 (A875 NT cells [2]; 10 µM): the better of the three | Wound area, Mean (A875 NT cells [2]; 10μM Div17E5, 0 hours): 1.000 Fold | Wound area, n1-n3 (A875 NT cells [2]; 10μM Div17E5, 3 hours): 1.026 Fold and 0.986 Fold and 1.104 Fold | Wound area, Mean (A875 NT cells [2]; 10μM Div17E5, 3 hours): 1.039 Fold | Wound area, n1-n3 (A875 NT cells [2]; 10μM Div17E5, 6 hours): 0.988 Fold and 0.956 Fold and 1.073 Fold | Wound area, Mean (A875 NT cells [2]; 10μM Div17E5, 6 hours): 1.006 Fold | Wound area, n1-n3 (A875 NT cells [2]; 10μM Div17E5, 9 hours): 0.922 Fold and 0.923 Fold and 1.017 Fold | Wound area, Mean (A875 NT cells [2]; 10μM Div17E5, 9 hours): 0.954 Fold | Wound area, n1-n3 (A875 NT cells [2]; 10μM Div17E5, 12 hours): 0.909 Fold and 0.918 Fold and 0.979 Fold | Wound area, Mean (A875 NT cells [2]; 10μM Div17E5, 12 hours): 0.935 Fold | Wound area, n1-n3 (A875 NT cells [2]; 10μM Div17E5, 15 hours): 0.913 Fold and 0.881 Fold and 0.951 Fold | Wound area, Mean (A875 NT cells [2]; 10μM Div17E5, 15 hours): 0.915 Fold | Wound area, n1-n3 (A875 NT cells [2]; 10μM Div17E5, 18 hours): 0.881 Fold and 0.866 Fold and 0.915 Fold | Wound area, Mean (A875 NT cells [2]; 10μM Div17E5, 18 hours): 0.887 Fold | Wound area, n1-n3 (A875 NT cells [2]; 10μM Div17E5, 21 hours): 0.886 Fold and 0.863 Fold and 0.915 Fold | Wound area, Mean (A875 NT cells [2]; 10μM Div17E5, 21 hours): 0.888 Fold | Wound area, n1-n3 (A875 NT cells [2]; 10μM Div17E5, 24 hours): 0.865 Fold and 0.854 Fold and 0.889 Fold | Wound area, Mean (A875 NT cells [2]; 10μM Div17E5, 24 hours): 0.870 Fold | Wound area (Fold), Mean (A875 NT cells [2]; 0 hours): 1 Fold | Wound area (Fold), individual replicates (A875 NT cells [2]; 0 hours): 1.000 Fold | Wound area (Fold), Mean (A875 NT cells [2]; 3 hours): 0.931 Fold | Wound area (Fold), individual replicates (A875 NT cells [2]; 3 hours): 0.928 Fold and 0.933 Fold | Wound area (Fold), Mean (A875 NT cells [2]; 6 hours): 0.912 Fold | Wound area (Fold), individual replicates (A875 NT cells [2]; 6 hours): 0.898 Fold and 0.926 Fold | Wound area (Fold), Mean (A875 NT cells [2]; 9 hours): 0.866 Fold | Wound area (Fold), individual replicates (A875 NT cells [2]; 9 hours): 0.856 Fold and 0.878 Fold | Wound area (Fold), Mean (A875 NT cells [2]; 12 hours): 0.895 Fold | Wound area (Fold), individual replicates (A875 NT cells [2]; 12 hours): 0.846 Fold and 0.944 Fold | Wound area (Fold), Mean (A875 NT cells [2]; 15 hours): 0.862 Fold | Wound area (Fold), individual replicates (A875 NT cells [2]; 15 hours): 0.814 Fold and 0.91 Fold | Wound area (Fold), Mean (A875 NT cells [2]; 18 hours): 0.863 Fold | Wound area (Fold), individual replicates (A875 NT cells [2]; 18 hours): 0.826 Fold and 0.899 Fold | Wound area (Fold), Mean (A875 NT cells [2]; 21 hours): 0.869 Fold | Wound area (Fold), individual replicates (A875 NT cells [2]; 21 hours): 0.805 Fold and 0.934 Fold | Wound area (Fold), Mean (A875 NT cells [2]; 24 hours): 0.869 Fold | Wound area (Fold), individual replicates (A875 NT cells [2]; 24 hours): 0.812 Fold and 0.927 Fold | Wound area (Fold) (A875 NT cells [2]; A875 NT, 1uM, 0 h, Mean): 1.000 Fold
